This note sets out measurements from patent publication US8012979B2, “Compounds and their uses 707” (AstraZeneca AB, priority 2007, dated 2011).

The target of the assay is T1, human active recombinant p38α-6His tagged (Homo sapiens, UniProt Q16539).
T1 construct: 6His
Nature of the assay: p38 Alpha Enzyme Assay (AlphaScreen, biotinylated-ATF2 substrate). The note with it: pre-incubated 4 hours at 37° C., reaction initiated with ATP; 0.5 nM enzyme; read-out: p38 pIC50 (converted). The class given is biochemical.

T1 sequence (Q16539 whole entry): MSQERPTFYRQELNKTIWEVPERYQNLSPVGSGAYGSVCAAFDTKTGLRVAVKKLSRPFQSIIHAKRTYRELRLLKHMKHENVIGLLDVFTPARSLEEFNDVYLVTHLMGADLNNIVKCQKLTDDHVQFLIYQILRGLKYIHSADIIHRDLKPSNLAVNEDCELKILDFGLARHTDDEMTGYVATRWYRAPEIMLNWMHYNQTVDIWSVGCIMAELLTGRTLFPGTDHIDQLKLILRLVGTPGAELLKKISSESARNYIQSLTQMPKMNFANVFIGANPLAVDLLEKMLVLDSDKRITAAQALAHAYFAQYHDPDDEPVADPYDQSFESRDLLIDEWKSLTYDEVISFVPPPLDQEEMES

For the compound `Cc1c(F)cc(C(=O)NC2CC2)cc1-c1ccc2c(=O)n(CC3CC3)cc(CN3CCCN(CCO)CC3)c2c1` [Example 78, N-Cyclopropyl-3-(2-(cyclopropylmethyl)-4-((4-(2-hydroxyethyl)-1,4-diazepan-1-yl)methyl)-1-oxo-1,2-dihydroisoquinolin-6-yl)-5-fluoro-4-methylbenzamide], the IC50 is 158 pM.
For the compound `Cc1c(F)cc(C(=O)NC2CC2)cc1-c1ccc2c(=O)n(CC3CC3)cc(CN3CCC[N+]([O-])(CCO)CC3)c2c1` (stereo not shown) [Example 79, 4-((6-(5-(Cyclopropylcarbamoyl)-3-fluoro-2-methylphenyl)-2-(cyclopropylmethyl)-1-oxo-1,2-dihydroisoquinolin-4-yl)methyl)-1-(2-hydroxyethyl)-1,4-diazepane 1-oxide], the IC50 is 631 pM.
`Cc1c(F)cc(C(=O)NC2CC2)cc1-c1ccc2c(=O)n(CC3CC3)cc(CN3C[C@@H](C)N[C@@H](C)C3)c2c1` [Example 80, N-Cyclopropyl-3-(2-(cyclopropylmethyl)-4-(((3S,5R)-3,5-dimethylpiperazin-1-yl)methyl)-1-oxo-1,2-dihydroisoquinolin-6-yl)-5-fluoro-4-methylbenzamide]: the IC50 was 316 pM.
To `CNC1CCN(Cc2cn(CC3CC3)c(=O)c3ccc(-c4cc(C(=O)NC5CC5)cc(F)c4C)cc23)CC1` [Example 81, N-Cyclopropyl-3-(2-(cyclopropylmethyl)-4-((4-(methylamino)piperidin-1-yl)methyl)-1-oxo-1,2-dihydroisoquinolin-6-yl)-5-fluoro-4-methylbenzamide] belongs 100 pM; to `Cc1c(F)cc(C(=O)NC2CC2)cc1-c1ccc2c(=O)n(CC3CC3)cc(CN3CCN[C@@H](C)C3)c2c1` [Example 82, (S)—N-Cyclopropyl-3-(2-(cyclopropylmethyl)-4-((3-methylpiperazin-1-yl)methyl)-1-oxo-1,2-dihydroisoquinolin-6-yl)-5-fluoro-4-methylbenzamide], 100 pM; to `Cc1c(F)cc(C(=O)NC2CC2)cc1-c1ccc2c(=O)n(CC3CC3)cc(CN3CCC(N)CC3)c2c1` [Example 83, 3-(4-((4-Aminopiperidin-1-yl)methyl)-2-(cyclopropylmethyl)-1-oxo-1,2-dihydroisoquinolin-6-yl)-N-cyclopropyl-5-fluoro-4-methylbenzamide], 79.4 pM.
On to `Cc1c(F)cc(C(=O)NC2CC2)cc1-c1ccc2c(=O)n(CC3CC3)cc(CN3CCC(NC(C)C)CC3)c2c1` [Example 84, N-Cyclopropyl-3-(2-(cyclopropylmethyl)-4-((4-(isopropylamino)piperidin-1-yl)methyl)-1-oxo-1,2-dihydroisoquinolin-6-yl)-5-fluoro-4-methylbenzamide], for which the IC50 is 200 pM.
For the compound `Cc1c(F)cc(C(=O)NC2CC2)cc1-c1ccc2c(=O)n(CC3CC3)cc(CN3CCN[C@@H](CO)C3)c2c1` [Example 85, (R)—N-Cyclopropyl-3-(2-(cyclopropylmethyl)-4-((3-(hydroxymethyl)piperazin-1-yl)methyl)-1-oxo-1,2-dihydroisoquinolin-6-yl)-5-fluoro-4-methylbenzamide], the IC50 is 39.8 pM.
Take `Cc1c(F)cc(C(=O)NC2CC2)cc1-c1ccc2c(=O)n(CC3CC3)cc(CN3CCNC[C@H]3C)c2c1` [Example 86, (R)—N-Cyclopropyl-3-(2-(cyclopropylmethyl)-4-((2-methylpiperazin-1-yl)methyl)-1-oxo-1,2-dihydroisoquinolin-6-yl)-5-fluoro-4-methylbenzamide]: the IC50 is 79.4 pM.
In the case of `Cc1c(F)cc(C(=O)NC2CC2)cc1-c1ccc2c(=O)n(CC3CC3)cc(CN3CCN(C)[C@@H](CO)C3)c2c1` [Example 87, (R)—N-Cyclopropyl-3-(2-(cyclopropylmethyl)-4-((3-(hydroxymethyl)-4-methylpiperazin-1-yl)methyl)-1-oxo-1,2-dihydroisoquinolin-6-yl)-5-fluoro-4-methylbenzamide], the IC50 is 63.1 pM.
Under `Cc1c(F)cc(C(=O)NC2CC2)cc1-c1ccc2c(=O)n(CC3CC3)cc(CN3CCNCC3)c2c1` [Example 88, N-Cyclopropyl-3-(2-(cyclopropylmethyl)-1-oxo-4-(piperazin-1-ylmethyl)-1,2-dihydroisoquinolin-6-yl)-5-fluoro-4-methylbenzamide] stands 63.1 pM; under `Cc1c(F)cc(C(=O)NC2CC2)cc1-c1ccc2c(=O)n(CC3CC3)cc(CNCC3CCNCC3)c2c1` [Example 89, N-Cyclopropyl-3-(2-(cyclopropylmethyl)-1-oxo-4-((piperidin-4-ylmethylamino)methyl)-1,2-dihydroisoquinolin-6-yl)-5-fluoro-4-methylbenzamide], 794 pM; under `Cc1c(F)cc(C(=O)NC2CC2)cc1-c1ccc2c(=O)n(CC3CC3)cc(CN3CCN(CCO)CC3)c2c1` [Example 90, N-Cyclopropyl-3-(2-(cyclopropylmethyl)-4-((4-(2-hydroxyethyl)piperazin-1-yl)methyl)-1-oxo-1,2-dihydroisoquinolin-6-yl)-5-fluoro-4-methylbenzamide], 158 pM.
For `CCN1CCC(CNCc2cn(CC3CC3)c(=O)c3ccc(-c4cc(C(=O)NC5CC5)cc(F)c4C)cc23)CC1` [Example 91, N-Cyclopropyl-3-(2-(cyclopropylmethyl)-4-(((1-ethylpiperidin-4-yl)methylamino)methyl)-1-oxo-1,2-dihydroisoquinolin-6-yl)-5-fluoro-4-methylbenzamide], the IC50 is 7940 pM.
Turning to `Cc1c(F)cc(C(=O)NC2CC2)cc1-c1ccc2c(=O)n(CC3CC3)cc(CN3CCCNCC3)c2c1` [Example 92, 3-(4-((1,4-Diazepan-1-yl)methyl)-2-(cyclopropylmethyl)-1-oxo-1,2-dihydroisoquinolin-6-yl)-N-cyclopropyl-5-fluoro-4-methylbenzamide], the IC50 is 100 pM.
To `Cc1ccc(C(=O)NC2CC2)cc1-c1ccc2c(=O)n(Cc3cccc(OCCCN(C)C)c3)cc(C)c2c1` [Example 93, N-Cyclopropyl-3-(2-(3-(3-(dimethylamino)propoxy)benzyl)-4-methyl-1-oxo-1,2-dihydroisoquinolin-6-yl)-4-methylbenzamide] belongs 2000 pM.
Under `Cc1ccc(C(=O)NC2CC2)cc1-c1ccc2c(=O)n(Cc3cccc(OCCCN(C)C)c3)c(C)cc2c1` [Example 94, N-Cyclopropyl-3-(2-(3-(3-(dimethylamino)propoxy)benzyl)-3-methyl-1-oxo-1,2-dihydroisoquinolin-6-yl)-4-methylbenzamide] stands 3160 pM; under `Cc1ccc(C(=O)NC2CC2)cc1-c1ccc2c(=O)n(Cc3ccc(CN(C)C)cc3)cc(C)c2c1` [Example 95, N-Cyclopropyl-3-(2-(4-((dimethylamino)methyl)benzyl)-4-methyl-1-oxo-1,2-dihydroisoquinolin-6-yl)-4-methylbenzamide], 2510 pM.
As to `Cc1ccc(C(=O)NC2CC2)cc1-c1ccc2c(=O)n(Cc3ccc(CN(C)C)cc3)c(C)cc2c1` [Example 96, N-Cyclopropyl-3-(2-(4-((dimethylamino)methyl)benzyl)-3-methyl-1-oxo-1,2-dihydroisoquinolin-6-yl)-4-methylbenzamide], the IC50 is 10000 pM.
To `Cc1ccc(C(=O)NC2CC2)cc1-c1ccc2c(=O)n(Cc3ccc(C4CCNCC4)cc3)cc(C)c2c1` [Example 97, N-Cyclopropyl-4-methyl-3-(4-methyl-1-oxo-2-(4-(piperidin-4-yl)benzyl)-1,2-dihydroisoquinolin-6-yl)benzamide] belongs 251 pM.
Consider `Cc1ccc(C(=O)NC2CC2)cc1-c1ccc2c(=O)n(Cc3ccc(C4CCNCC4)cc3)c(C)cc2c1` [Example 98, N-Cyclopropyl-4-methyl-3-(3-methyl-1-oxo-2-(4-(piperidin-4-yl)benzyl)-1,2-dihydroisoquinolin-6-yl)benzamide], for which the IC50 is 2510 pM.
Consider `Cc1ccc(C(=O)NC2CC2)cc1-c1ccc2c(=O)n(Cc3ccccc3)cc(CCCN(C)C)c2c1` [Example 99, 3-(2-Benzyl-4-(3-(dimethylamino)propyl)-1-oxo-1,2-dihydroisoquinolin-6-yl)-N-cyclopropyl-4-methylbenzamide], for which the IC50 was 398 pM.
With `Cc1ccc(C(=O)NC2CC2)cc1-c1ccc2c(=O)n(Cc3ccccc3)cc(CCCN3CCCC3)c2c1` [Example 100, 3-(2-Benzyl-1-oxo-4-(3-(pyrrolidin-1-yl)propyl)-1,2-dihydroisoquinolin-6-yl)-N-cyclopropyl-4-methylbenzamide], the IC50 is 1000 pM.
To `Cc1ccc(C(=O)NC2CC2)cc1-c1ccc2c(=O)n(CC3CC3)cc(COCCN(C)C)c2c1` [Example 101, N-Cyclopropyl-3-(2-(cyclopropylmethyl)-4-((2-(dimethylamino)ethoxy)methyl)-1-oxo-1,2-dihydroisoquinolin-6-yl)-4-methylbenzamide] belongs 3160 pM; to `Cc1c(F)cc(C(=O)NC2CC2)cc1-c1ccc2c(=O)n(CC3CC3)cc(CN3CCN[C@H](CO)C3)c2c1` [Example 102, (S)—N-Cyclopropyl-3-(2-(cyclopropylmethyl)-4-((3-(hydroxymethyl)piperazin-1-yl)methyl)-1-oxo-1,2-dihydroisoquinolin-6-yl)-5-fluoro-4-methylbenzamide], 50.1 pM; to `Cc1ccc(C(=O)NC2CC2)cc1-c1ccc2c(=O)n(Cc3ccc(S(C)(=O)=O)cc3)cc(CN3CCCN(C)CC3)c2c1` [Example 103, N-Cyclopropyl-4-methyl-3-(4-((4-methyl-1,4-diazepan-1-yl)methyl)-2-(4-(methylsulfonyl)benzyl)-1-oxo-1,2-dihydroisoquinolin-6-yl)benzamide], 126 pM.
In the case of `Cc1ccc(C(=O)NC2CC2)cc1-c1ccc2c(=O)n(Cc3ccc(C(=O)O)cc3)cc(CN3CCCN(C)CC3)c2c1` [Example 104, 4-((6-(5-(Cyclopropylcarbamoyl)-2-methylphenyl)-((4-methyl-1,4-diazepan-1-yl)methyl)-1-oxoisoquinolin-2(1H)-yl)methyl)benzoic acid], the IC50 was 200 pM.
Under `Cc1ccc(C(=O)NC2CC2)cc1-c1ccc2c(=O)n(Cc3ccc(C(=O)N(C)C)cc3)cc(CN3CCCN(C)CC3)c2c1` [Example 105, N-Cyclopropyl-3-(2-(4-(dimethylcarbamoyl)benzyl)-4-((4-methyl-1,4-diazepan-1-yl)methyl)-1-oxo-1,2-dihydroisoquinolin-6-yl)-4-methylbenzamide] stands 158 pM.
